What was measured:
mouse target mRNA = test: Activity assessment of HSC-LNP: liver target mRNA knock-down (QuantiGene) after IV injection of siRNA LNP (Table 1); type: in vivo, female Balb/C mice; conditions: dose 0.025 mg/kg IV, 48h post-dose, relative to PBS control
Method: (§1) The lipid solution contained 4 components: a PEG-conjugated lipid, an ionizable lipid (e.g., a silicon lipid), cholesterol, and a phospholipid (e.g., DSPC). Lipid stocks were prepared using the lipid identities and molar ratios as described. The siRNA was diluted in 100 mM acetate, pH 4 buffer to prepare lipid nanoparticles (LNP) at a total lipid to siRNA weight ratio of approximately 10:1 to 20:1. Equal volumes of the lipid and nucleic acid solutions were blended at a flow rate of 400 mL/min through a T-connector, and diluted into PBS, pH 7.4. The ethanol was then removed and the external buffer replaced with Tris/NaCl buffer by dialysis. Following dialysis, the formulations were concentrated using VivaSpin concentrator units (MWCO 100,000) and filtered through a 0.2 μm pore sterile filter. Nucleic acid concentration was determined by the RiboGreen assay. Particle size and polydispersity were determined using a Malvern Nano Series Zetasizer.
(§2) Just prior to injection, the siRNA LNP stocks were filtered and diluted down to the required dosing concentration. At 48h post-dose (terminal timepoint), the animals were euthanized with a lethal dose of ketamine/xylazine. Half the left lateral lobe of the liver was collected into 1.5 mL RNALater and stored at 2-8° C. overnight. The next day, an approximately 20-25 mg piece of liver was homogenized and the liver lysate used in a QuantiGene Assay, testing for relative levels of mouse target mRNA and GAPDH expression. Data from each animal was normalized to the liver weight used in the assay, and then relative to the GAPDH signal; data is reported as the average % knock-down of each group (where the PBS control group is 100% gene expression, 0% knock-down).

reelin mRNA = test: Reelin mRNA knock-down following IV administration of the LNP formulations (FIGS. 1-4); type: in vivo; conditions: Balb/C mice (n=4); for dose giving equivalent potency in reelin mRNA knock-down (FIG. 1) / reelin mRNA knock-down in HSCs, specificity for HSCs (FIG. 2): 48 hours following IV administration
Method: as §1
as §2, with “Generally, the LNP formulations were injected intravenously at 0.025 mg/kg to female Balb/C mice (5-8 weeks old) to measure activity of the HSC-LNP. Just” for “Just”

[1] = Tolerability assessment of HSC-LNP: liver enzyme levels (FIGS. 5A-5B); type: in vivo, female Balb/C mice; conditions: dose range up to 3 mg/kg IV
Method: Generally, the LNP formulations were injected intravenously at ˜0.03 to 3 mg/kg to female Balb/C mice (5-8 weeks old) to assess tolerability of the HSC-LNP. Just prior to injection, the siRNA LNP stocks were filtered and diluted down to the required dosing concentration. At 2h post-treatment, blood was collected via tail nicks and processed to plasma (for cytokine analysis by ELISA). At the terminal timepoint (24 h post-dose), blood was collected by cardiac puncture (target ≥800 μL) and sent to IDEXX for CRES 15 panel analysis (CBC/Diff & Clin Chem analysis).
Briefly, blood (˜300 uL) was collected into EDTA microtainer tubes, inverted 10× to mix the K2EDTA whole blood sample, and immediately stored at 4° C. to await same-day shipment to for hematology analysis. The remaining blood volume (˜500 uL) was collected into serum separator tubes and inverted 5× to mix the SST sample, then allowed to clot for 1-1.5h at room temp. The blood samples were centrifuged, and serum was collected for clinical chemistry analysis.

[2] = Duration of action of LNP with minimally modified siRNA (FIG. 6); type: in vivo
[3] = Clearance of LNP from mouse liver, biodegradable functionality (FIG. 7); type: in vivo
[4] = 24 hours following IV administration

## CCCCC/C=C\CCCO[Si](C)(CCCCN1C[C@H]2CCCN(CCCC[Si](C)(OCCC/C=C\CCCCC)OCCC/C=C\CCCCC)[C@H]2C1)OCCC/C=C\CCCCC [Compound 43]
Mouse target mRNA; Formulation 1.5:50 (DSPC)
  Percent knock-down: 0%

## CCCCC/C=C\CCCO[Si](C)(CCCCN1CCC2(CC1)CCN(CCCC[Si](C)(OCCC/C=C\CCCCC)OCCC/C=C\CCCCC)CC2)OCCC/C=C\CCCCC [Compound 14]
Mouse target mRNA; Formulation 1.1:55 (DOPE)
  Percent knock-down: 18%

## CCCCC/C=C\CCCO[SiH](CCCCN1CCN(C)CCN(CCCC[Si](C)(OCCC/C=C\CCCCC)OCCC/C=C\CCCCC)CC1)OCCC/C=C\CCCCC [Compound 38]
Mouse target mRNA; Formulation 1.5:50 (DSPC)
  Percent knock-down: 1%

## CCCCC/C=C\CCCO[Si](C)(CCCCN(C)CCCN(C)CCCC[Si](C)(OCCC/C=C\CCCCC)OCCC/C=C\CCCCC)OCCC/C=C\CCCCC [Compound 12, N1,N3-bis(4-(bis(((Z)-dec-4-en-1-yl)oxy)(methyl)silyl)butyl)-N1,N3-dimethylpropane-1,3-diamine]
Reelin mRNA; [4]
  dose at which maximum knock-down in HSCs is achieved (FIG. 3): about 0.03 mg/kg
  dose required to achieve equivalent reelin mRNA knock-down (FIG. 4): 0.03 mg/kg
Reelin mRNA
  dose giving equivalent potency in reelin mRNA knock-down (FIG. 1): 0.025 mg/kg
  reelin mRNA knock-down in HSCs, specificity for HSCs (FIG. 2): high specificity for HSCs
[1]
  tolerability: liver enzyme levels (FIGS. 5A-5B): no significant increases in liver enzyme levels
[2]
  duration of action (FIG. 6): good duration of action
[3]
  clearance of LNP from mouse liver (FIG. 7): cleared rapidly from mouse liver

## CCCCC/C=C\CCCC(CCC/C=C\CCCCC)C(CCC/C=C\CCCCC)OC(=O)CCCCN(C)C (stereo not shown) [Compound 101, reference compound]
Reelin mRNA
  reelin mRNA knock-down in HSCs, specificity for HSCs (FIG. 2): no knock-down in HSCs

## CCCCC/C=C\CCCO[Si](C)(CCCCN(CC)CCCN(CC)CCCC[Si](C)(OCCC/C=C\CCCCC)OCCC/C=C\CCCCC)OCCC/C=C\CCCCC [Compound 29]
Mouse target mRNA; Formulation 1.1:55 (DSPC)
  Percent knock-down: 29%

## CCCCC/C=C\CCCO[Si](C)(CCCCN1CCC2(CC1)CCN(CCCC[Si](C)(OCCC/C=C\CCCCC)OCCC/C=C\CCCCC)CC2)OCCC/C=C\CCCCC [Compound 42]
Mouse target mRNA; Formulation 1.5:50 (DSPC)
  Percent knock-down: 28%

## CCCCC/C=C\CCCC(CCC/C=C\CCCCC)C(CCC/C=C\CCCCC)OC(=O)CCCCCN(C)C (stereo not shown) [Compound 100, reference compound]
Reelin mRNA; [4]
  dose required to achieve equivalent reelin mRNA knock-down (FIG. 4): ~1 mg/kg
Reelin mRNA
  dose giving equivalent potency in reelin mRNA knock-down (FIG. 1): 0.1 mg/kg

## CCCCC/C=C\CCCO[Si](C)(CCCCN1CCC2(CC1)CCN(CCCC[Si](C)(OCCC/C=C\CCCCC)OCCC/C=C\CCCCC)C2)OCCC/C=C\CCCCC [Compound 39]
Mouse target mRNA; Formulation 1.5:50 (DSPC)
  Percent knock-down: 81%

Source: US12673963B2, “Cationic lipids for lipid nanoparticle delivery of therapeutics to hepatic stellate cells” (GENEVANT SCIENCES GMBH, priority 2020, dated 2026)
